In patent US8013144B2, “hnRNP K expression-inhibiting compound and siRNA sequence thereof” (Chang Gung University, priority 2009, dated 2011):

System: NPC-TW02 and NPC-TW02/TP
Test: cytotoxicity assay with 5′-DFUR, apoptosis assay (annexin V)
Assay type: cell-based
Conditions: TP over-expression, 72 hours
Protocol: Refer to FIG. 1A and FIG. 1B. A cell line of nasopharyngeal cancer NPC-TW02/TP is established to stably express exogenous TP. First, the TP-expression carrier pcDNA3.1-PT is transfected to the cell line. Next, the cell line is screened and then cultivated in a culture solution having 500 μg/ml G418. Next is performed a cytotoxicity assay, wherein NPC-TW02 and NPC-TW02/TP are respectively processed with 5′-DFUR (a product of Sigma-Aldrich, St. Louis, Mo., USA). Next, the cell lines are further cultivated for 72 hours. Next, the cell membranes are everted to expose phosphatidylserine. Then, phosphatidylserine is analyzed with the Vybrant® Apoptosis Assay Kit #2 (a product of Invitrogen).
Firstly, 2×10^5 cells are taken out and washed with PBS. Next, a buffer solution (10 mM HEPES, 140 mM NaCl, 2.5 mM CaCl2, pH 7.4) is used to adjust the solution to have a cell concentration of 2×10^6/mL. Next, 5 μl Alexa Fluor® 488 annexin V is added into […], and then the cell suspension reacts at an ambient temperature for 15 minutes. Next, the cell specimens (10000 events) are analyzed with a flow cytometer (a product of Becton Dickinson), as shown in FIG. 3. […] Then, phosphatidylserine is analyzed with the Vybrant® Apoptosis Assay Kit #2 (a product of Invitrogen).

C[C@H]1O[C@@H](n2cc(F)c(=O)[nH]c2=O)[C@H](O)[C@@H]1O [5′-DFUR, 5-fluoro-5′-deoxyuridine]
sensitivity of nasopharyngeal cancer cells to 5′-DFUR (apoptosis): more sensitive
